Test [1] addresses T1, hCA IX (Homo sapiens, UniProt Q16790).
T1 construct: made in house
Nature of the test: stopped-flow CO2 hydrase assay, hCA IX. In kind it is biochemical. The conditions noted are these: mean from three determinations, errors 5–10%. As for the experimental part: (§1) An Applied Photophysics stopped-flow instrument has been used for assaying the CA catalysed CO2 hydration activity. […] The CO2 concentrations ranged from 1.7 to 17 mM for the determination of the kinetic parameters and inhibition constants. In particular, CO2 was bubbled in distilled deionised water for 30 min till saturation. A CO2 kit (Sigma, Milan, Italy) was used to measure the concentration in serially diluted solutions from the saturated one at the same temperature. […] The uncatalyzed rates were determined in the same manner and subtracted from the total observed rates. Stock solutions of inhibitor (1 µM) were prepared in distilled-deionised water and dilutions up to 0.1 nM were done thereafter with the assay buffer. […] The inhibition constants were obtained by non-linear least-squares methods using PRISM 3 and the Cheng-Prusoff equation[29], and represent the average from at least three different determinations. All recombinant CA isoforms were obtained in-house as previously reported[30]^,[31].

The target in test [2] is T2, hCA II (Homo sapiens, UniProt P00918).
T2 construct: made in house
Nature of the test: stopped-flow CO2 hydrase assay, hCA II. As to conditions: mean from three determinations, errors 5–10%. In kind it is biochemical. As for the experimental part:
as §1

The target of test [3] is T3, hCA XII (Homo sapiens, UniProt O43570).
T3 construct: made in house
T3 sequence (O43570 25-354): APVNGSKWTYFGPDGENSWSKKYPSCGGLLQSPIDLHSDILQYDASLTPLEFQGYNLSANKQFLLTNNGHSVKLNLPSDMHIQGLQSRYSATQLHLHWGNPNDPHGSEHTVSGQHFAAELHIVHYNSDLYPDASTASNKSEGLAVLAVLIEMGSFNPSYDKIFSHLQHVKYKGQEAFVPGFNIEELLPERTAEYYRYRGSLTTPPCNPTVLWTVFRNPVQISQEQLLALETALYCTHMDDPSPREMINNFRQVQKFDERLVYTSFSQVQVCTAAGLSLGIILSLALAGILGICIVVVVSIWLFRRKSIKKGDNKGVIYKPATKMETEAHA
Nature of the test: stopped-flow CO2 hydrase assay, hCA XII. Format: biochemical. As to conditions: mean from three determinations, errors 5–10%. Here is the method:
as §1

The target in test [4] is T4, hCA I (Homo sapiens, UniProt P00915).
T4 construct: made in house
T4 sequence (P00915 whole entry): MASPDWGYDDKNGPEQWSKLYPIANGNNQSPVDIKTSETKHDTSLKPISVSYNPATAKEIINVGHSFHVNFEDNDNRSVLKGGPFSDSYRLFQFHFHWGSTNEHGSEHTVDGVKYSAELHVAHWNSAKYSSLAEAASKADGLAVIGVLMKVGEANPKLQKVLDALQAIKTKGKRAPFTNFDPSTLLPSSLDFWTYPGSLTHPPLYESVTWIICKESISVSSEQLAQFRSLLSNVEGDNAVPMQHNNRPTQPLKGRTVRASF
The experiment in a line: stopped-flow CO2 hydrase assay, hCA I. Format: biochemical. As to conditions: mean from three determinations, errors 5–10%. Here is the method: as §1

Test [5] concerns the target T1, hCA IX. Further details: method as in PMID 25407638. As to conditions: lead compound, earlier report; cited from earlier work.
For test [6], the target named is T3, hCA XII. Details: method as in PMID 25407638. The conditions noted are these: lead compound, earlier report; cited from earlier work.
Test [7] concerns the target T4, hCA I. Details: method as in PMID 25407638. The conditions noted are these: lead compound, earlier report; cited from earlier work.
The target of test [8] is T2, hCA II. Further details: method as in PMID 25407638. As to conditions: lead compound, earlier report; cited from earlier work.

The source of these data is PMC6713143, “Design, synthesis and biological activity of selective hCAs inhibitors based on 2-(benzylsulfinyl)benzoic acid scaffold” (Journal of Enzyme Inhibition and Medicinal Chemistry, 2019).

The term Ki denotes a dissociation constant, usually derived from enzyme kinetics or from competition with a known ligand.

Read-outs that look alike come from different tables or passages of the source.

Consider `COC(=O)c1ccccc1OCc1ccccc1` [Compound 44], for which the Ki at hCA IX [1], at hCA II [2], at hCA XII [3] and at hCA I [4] was > 100 µM each time.
With `COC(=O)c1ccccc1NCc1ccccc1` [Compound 45], the inhibitory constant (Ki) on hCA IX [1], on hCA II [2], at hCA XII [3] and on hCA I [4] was > 100 µM throughout.
Consider `COC(=O)c1ccccc1CCc1ccccc1` [Compound 46], for which the Ki on hCA IX [1], on hCA II [2], on hCA XII [3] and on hCA I [4] was > 100 µM each time.
Take `NC(=O)c1ccccc1NCc1ccccc1` [Compound 48]: the Ki on hCA IX [1], on hCA II [2], on hCA XII [3] and at hCA I [4] was > 100 µM each time.
For `NC(=O)c1ccccc1CCc1ccccc1` [Compound 49], the Ki on hCA IX [1], at hCA II [2], on hCA XII [3] and on hCA I [4] was > 100 µM throughout.
Consider `NC(=O)c1ccccc1NC(=O)Cc1ccccc1` [Compound 50], for which the Ki at hCA IX [1], at hCA II [2], at hCA XII [3] and on hCA I [4] was > 100 µM each time.
With `O=C(NO)c1ccccc1NCc1ccccc1` [Compound 51], the Ki on hCA IX [1], on hCA II [2], at hCA XII [3] and at hCA I [4] was > 100 µM each time.
In the case of `CC(=O)c1ccccc1OCc1ccccc1` [Compound 52], the Ki at hCA IX [1], at hCA II [2], at hCA XII [3] and on hCA I [4] was > 100 µM each time.
Take `CC(=O)c1ccccc1NCc1ccccc1` [Compound 53]: the Ki at hCA IX [1], at hCA II [2], on hCA XII [3] and at hCA I [4] was > 100 µM each time.
`O=C(O)c1ccccc1[S+]([O-])Cc1ccccc1` (stereo not shown) [lead compound, 2-(benzylsulfinyl)benzoic acid]: the Ki at hCA IX [5] was 1.29 µM; at hCA XII [6] it was > 10 µM; on hCA I [7], > 10 µM; at hCA II [8], 0.15 µM.
